# In patent US10125135B2, “Chemical compounds” (AstraZeneca AB, priority 2016, dated 2018):
# Columns and labels:
# [1] = Human plasma protein binding, equilibrium dialysis (RED); type: in vitro ADME; conditions: dialysis for 18 hours
# Experimental: Human Plasma Protein Binding
# The automated equilibrium dialysis assay in human plasma uses the RED (Rapid Equilibrium Dialysis) Device and sample handling. The assay generally runs over two to three days including delivery of results. After dialysis for 18 hours, plasma and buffer samples are prepared for analysis by liquid chromatography and mass spectrometry. Samples are generally tested in singlicates and quantified by LC/MSMS by using a 7-point calibration curve in plasma. The compounds are pooled together in plasma pools up to 10 compounds. Three reference compounds are used in each run, Propranolol, Metoprolol and Warfarin. Warfarin is used as a control in each pool and Propranolol and Metoprolol are placed randomly in each run. An in-house Excel macro is used for preparation of files for the robot and the mass spectrometer and also used for the calculations of fraction unbound (fu %) in plasma.
# [2] = target: estrogen receptor (ERα) in MCF-7 human breast cancer cell line (Homo sapiens (Human), UniProt P03372); experiment: Western blotting assay, MCF-7 cells; type: cell-based; conditions: 100 nM compound, 48 h; normalised to vehicle (0%) and 100 nM fulvestrant (100%)
# estrogen receptor (ERα) in MCF-7 human breast cancer cell line, sequence (P03372 whole entry): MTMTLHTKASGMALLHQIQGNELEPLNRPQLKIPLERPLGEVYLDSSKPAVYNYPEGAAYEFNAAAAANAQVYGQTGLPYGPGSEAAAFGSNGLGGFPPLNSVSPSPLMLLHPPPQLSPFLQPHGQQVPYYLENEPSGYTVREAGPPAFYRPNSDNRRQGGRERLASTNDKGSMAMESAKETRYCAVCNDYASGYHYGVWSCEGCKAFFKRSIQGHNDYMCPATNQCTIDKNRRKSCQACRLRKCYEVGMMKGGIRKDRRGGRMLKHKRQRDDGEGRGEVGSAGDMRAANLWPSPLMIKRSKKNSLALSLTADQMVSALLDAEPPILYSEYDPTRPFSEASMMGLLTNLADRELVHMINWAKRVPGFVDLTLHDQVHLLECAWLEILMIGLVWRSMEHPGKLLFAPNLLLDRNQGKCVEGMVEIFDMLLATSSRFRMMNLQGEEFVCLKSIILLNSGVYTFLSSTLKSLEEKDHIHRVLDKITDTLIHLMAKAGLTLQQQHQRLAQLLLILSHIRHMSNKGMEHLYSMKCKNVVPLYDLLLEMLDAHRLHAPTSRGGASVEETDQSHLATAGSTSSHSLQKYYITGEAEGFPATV
# Experimental: (§1) The ability of compounds to down-regulate estrogen receptor (ER) was assessed by western blotting using human breast cancer cell lines (MCF-7 and CAMA-1). Cells were plated into 12-well tissue culture-treated plates at 0.5×10^6/well in phenol red-free RPMI containing 2 mM L-glutamine and 5% (v/v) charcoal treated foetal calf serum (F6765, Sigma). Cells were incubated with compounds (100 nM) or vehicle control (0.1% DMSO) for 48 h at 37° C., 5% CO2 before washing once with PBS and lysing with 80 μl lysis buffer (25 mM Tris/HCl, 3 mM EDTA, 3 mM EGTA, 50 mM NaF, 2 mM sodium orthovanadate, 0.27 M sucrose, 10 mM β-glycerophosphate, 5 mM sodium pyrophosphate, 0.5% TritonX-100, pH 6.8) on ice.
# (§2) Cells were scraped, sonicated and centrifuged prior to performing a protein assay (DC Bio-Rad Protein kit, 500-0116) and making samples to a protein concentration of 1-2 mg/m1 in lysis buffer containing 1× LDS Sample Buffer (NP0007, Invitrogen) and 1× NuPAGE sample reducing agent (NP0009, Invitrogen). Samples were boiled for 10 min at 95° C. and then frozen at −20° C. until ready for use.
# (§3) 10-20 μg protein was loaded onto 26-well Criterion gels (BioRad 345-0034). Gels were run at 125 V for 1 hr 25 min in running buffer (24 mM Tris Base Sigma, 192 mM Glycine, 3.5 mM SDS, made up in distilled water). Gels were then transferred at 30V for 2 hr in transfer buffer (25 mM Tris, 192 mM Glycine, 20% (v/v) methanol, pH 8.3, made up in distilled water) onto nitrocellulose membrane. The blot was stained with Ponceau S (P7170, Sigma) and cut according to appropriate molecular weight markers.
# (§4) Membranes were blocked for 1 hour at room temp in 5% Marvel (w/v) in phosphate-buffered saline containing 0.05% Tween™ 20 (PBS/Tween). Blots were then incubated with anti-ERα (SP1) rabbit monoclonal antibody (Thermofisher) diluted 1:1000 at 4° C. overnight (with gentle shaking) followed by several washes with PBS/Tween. Secondary anti-rabbit HRP antibody (7074, CST) diluted 1:2000 dilution was incubated for 2 h at room temperature (with gentle shaking) followed by several washes with PBS/Tween. All antibodies were made up in 5% Marvel (w/v) in PBS/Tween.
# (§5) The immunoblots were developed using Pierce WestDura chemiluminescent reagents (Thermo Scientific 34076) and developed/quantified on the G-box using Syngene software. Down-regulation of the ERα receptor was normalised to the vehicle control (0% down-regulation) and the 100 nM fulvestrant control (100% down-regulation) run within the same gel.
# [3] = Thermodynamic solubility, shake-flask; type: physicochemical; conditions: thermodynamic from solid; aqueous phosphate buffer pH 7.4, 24 hours at 25° C.
# Experimental: The thermodynamic solubility of a research compound is measured under standard conditions. It is a shake-flask approach that uses 10 mM DMSO solutions which are supplied from the Compound Managements liquid store and is a high throughput method. The dried compounds are equilibrated in an aqueous phosphate buffer (pH 7.4) for 24 hours at 25° C., the portion with the dissolved compound is then separated from the remains. The solutions are analyzed and quantified using UPLC/MS/MS, QC-samples are incorporated in each assay-run to ensure the quality of the assay.
# [4] = logD shake flask, 1-octanol/aqueous buffer; type: physicochemical; conditions: pH 7.4
# Description: The lipophilicity of a drug is an important physical property which may influence many biological and metabolic properties of a compound. The distribution coefficient between 1-octanol and aqueous buffer, Log DO/W, at pH 7.4, is the most commonly used measurement of the lipophilicity of a compound. The current method for measurement of Log DO/W is based on the traditional shake flask technique, but with the modification of measuring compounds in mixtures of ten at a time using UPLC with quantitative mass spectrometry (MS) as a method to measure the relative octanol and aqueous concentrations. […] An additional QC sample Caffeine, with low Log D, are used and randomly placed in all runs. The method has been thoroughly validated against the previous shake flask methodologies.
# [5] = target: estrogen receptor (ERα) in CAMA-1 human breast cancer cell line (Homo sapiens (Human), UniProt P03372); experiment: Western blotting assay, CAMA-1 cells; type: cell-based; conditions: 100 nM compound, 48 h; normalised to vehicle (0%) and 100 nM fulvestrant (100%)
# estrogen receptor (ERα) in CAMA-1 human breast cancer cell line, sequence (P03372 whole entry): as above
# Experimental: as §1, §2, §3, §4, §5
Compound,Human plasma protein binding (% free) [1],MCF7 Western % ER deg vs Fv [2],solubility at 24 h [3],logD [4],CAMA1 Western % ER deg vs Fv [5]
"COc1cc(OCCN2CC(CF)C2)ccc1[C@@H]1c2ccc3[nH]ncc3c2C[C@@H](C)N1CC(C)(C)F [Example 5, (6S,8R)-7-(2-fluoro-2-methylpropyl)-6-(4-(2-(3-(fluoromethyl)azetidin-1-yl)ethoxy)-2-methoxyphenyl)-8-methyl-6,7,8,9-tetrahydro-3H-pyrazolo[4,3-f]isoquinoline]",6.2 % free,69%,263 µM,3.5,74%
"COc1cc(OCCN2CC(CF)C2)ccc1[C@@H]1c2ccc3[nH]ncc3c2C[C@@H](C)N1CC1(F)CC1 [Example 6, (6S,8R)-7-((1-fluorocyclopropyl)methyl)-6-(4-(2-(3-(fluoromethyl)azetidin-1-yl)ethoxy)-2-methoxyphenyl)-8-methyl-6,7,8,9-tetrahydro-3H-pyrazolo[4,3-f]isoquinoline]",21 % free,77%,957 µM,2.8,87%
"C[C@@H]1Cc2c(ccc3[nH]ncc23)[C@@H](c2ccc(OCCN3CC(CF)C3)cn2)N1CC1(F)CC1 [Example 8, (6S,8R)-7-((1-fluorocyclopropyl)methyl)-6-(5-(2-(3-(fluoromethyl)azetidin-1-yl)ethoxy)pyridin-2-yl)-8-methyl-6,7,8,9-tetrahydro-3H-pyrazolo[4,3-f]isoquinoline]",34 % free,80%,> 1000 µM,2.6,86%
"COc1cc(OCCN2CC(CF)C2)ccc1[C@@H]1c2ccc3[nH]ncc3c2C[C@@H](C)N1CC(C)C [Example 9, (6S,8R)-6-(4-(2-(3-(fluoromethyl)azetidin-1-yl)ethoxy)-2-methoxyphenyl)-7-isobutyl-8-methyl-6,7,8,9-tetrahydro-3H-pyrazolo[4,3-f]isoquinoline]",52 % free,97%,> 1000 µM,2.4,81%
"C[C@@H]1Cc2c(ccc3[nH]ncc23)[C@@H](c2ccc(OCCN3CC(CF)C3)cn2)N1CC(F)(F)F [Example 49, (6S,8R)-6-(5-(2-(3-(fluoromethyl)azetidin-1-yl)ethoxy)pyridin-2-yl)-8-methyl-7-(2,2,2-trifluoroethyl)-6,7,8,9-tetrahydro-3H-pyrazolo[4,3-f]isoquinoline]",23 % free,98%,> 1000 µM,3,77%
"C[C@@H]1Cc2c(ccc3[nH]ncc23)[C@@H](c2ccc(OCCN3CC(CF)C3)cn2)N1CC(F)F [Example 51, (6S,8R)-7-(2,2-difluoroethyl)-6-(5-(2-(3-(fluoromethyl)azetidin-1-yl)ethoxy)pyridin-2-yl)-8-methyl-6,7,8,9-tetrahydro-3H-pyrazolo[4,3-f]isoquinoline]",49 % free,97%,974 µM,2.4,82%
